According to the Deep4Chem optical property database:

Experiment: solvent given as SMILES

With `CCCCCCN1C(=O)c2cccc3cc(/N=C\c4ccc5c(c4)c4ccccc4n5CC)cc(c23)C1=O` as the molecule, how does the emission maximum (in ClC(Cl)Cl) read?
The emission maximum was 501 nm.

For `COc1ccc2n1[B-](F)(F)[N+]1=CC=CC1=C2c1ccccc1`, which emission maximum (in CC#N) is on record?
The emission maximum was 513 nm.

And the emission maximum (in CCCCCC)?
Its emission maximum is 514 nm.

And the emission maximum (in CCOC(C)=O)?
The emission maximum was 514 nm.

And the emission maximum (in CO)?
The emission maximum was 512 nm.

And the emission maximum (in ClCCl)?
Its emission maximum is 518 nm.

Which results are given for `CC1=[N+]2C(=C(Oc3ccccc3)c3ccc(C)n3[B-]2(F)F)C=C1c1cc2n(c1)[B-](F)(F)[N+]1=CC=CC1=C2c1c(C)cc(C)cc1C`?
emission maximum (in C1CCCCC1): 630 nm; emission maximum (in CCOC(C)=O): 665 nm

For `COc1ccccc1C1=[N+]2C(=Cc3c4c(c(-c5ccccc5OC)n3[B-]2(F)F)C2CCC4CC2)C2=C1C1CCC2CC1`, which emission maximum (in ClCCl) is on record?
Its emission maximum is 583 nm.

What does the source list for `c1ccc2c(c1)c1ccccc1n2-c1ccc(-c2ccc(-c3ccc(-n4c5ccccc5c5ccccc54)nc3-n3c4ccccc4c4ccccc43)nn2)c(-n2c3ccccc3c3ccccc32)n1`?
emission maximum (in CC#N): 474.18 nm; emission maximum (in Cc1ccccc1): 400 nm; emission maximum (in ClCCl): 419.62 nm

Which emission maximum (in CO) does the source give for `CCN(CC)c1ccc(C2=C3C(C)=CC(/C=C/c4ccc(OCC(=O)OC)cc4)=[N+]3[B-](F)(F)n3c(C)cc(C)c32)cc1` here?
The emission maximum was 581 nm.

Which results are given for `CCN1c2ccc(-c3cc(C(F)(F)F)[nH]n3)cc2Sc2cc(-c3cc(C(F)(F)F)[nH]n3)ccc21`?
emission maximum (in C1CCOC1): 469 nm; emission maximum (in CC#N): 469 nm; emission maximum (in CN(C)C=O): 464 nm; emission maximum (in ClCCl): 467 nm; emission maximum (in c1ccccc1): 463 nm

With `C(=C\c1c2ccccc2cc2ccccc12)/c1ccc(Oc2ccc3ccccc3c2-c2c(Oc3ccc(/C=C/c4c5ccccc5cc5ccccc45)cc3)ccc3ccccc23)cc1` as the molecule, how does the emission maximum (in ClCCl) read?
The emission maximum was 486 nm.

With `Clc1cnc2nn3ccccc3c2n1` as the molecule, how does the emission maximum (in C1CCOC1) read?
The emission maximum was 448 nm.

With `CC[N+]1(CC)CN2C(=N1)C(C(=O)O)=Cc1cc(C)c(C)cc12` as the molecule, how does the emission maximum (in O) read?
Its emission maximum is 466 nm.

Which emission maximum (in CC#N) does the source give for `O=c1oc2ccccc2cc1C#Cc1ccccc1` here?
The emission maximum was 406 nm.

With `Oc1ccc2ccccc2c1/C=N/C1CCCCC1/N=C/c1c(O)ccc2ccccc12` (stereo not given) as the molecule, how does the emission maximum (in CC#N) read?
Its emission maximum is 471 nm.

With `CN1/C(=C/C=C/C2=[N+](C)c3ccccc3C2(C)C)Sc2ccccc21` as the molecule, how does the emission maximum (in CS(C)=O) read?
The emission maximum was 569 nm.

For `Cc1cn(C)c(=O)nc1-n1cncn1`, which emission maximum (in O) is on record?
Its emission maximum is 389 nm.

Which emission maximum (in ClCCl) does the source give for `C(#Cc1nc(C#Cc2ccccc2)c(C#Cc2ccccc2)c(C#Cc2ccccc2)c1C#Cc1ccccc1)c1ccccc1` here?
The emission maximum was 438 nm.

For `O=c1c2cc(F)c(N3CCOCC3)cc2oc2cc(N3CCOCC3)c(F)cc12`, which emission maximum (in CCO) is on record?
Its emission maximum is 448 nm.

Which emission maximum (in C1CCOC1) does the source give for `CCCCCCCCCCCCn1nnc(-c2ccc(C#Cc3ccc(C#Cc4ccc(-c5nnn(CCCCCCCCCCCC)n5)cc4)c4nc5c6ccccc6c6ccccc6c5nc34)cc2)n1` here?
Its emission maximum is 495 nm.

And the emission maximum (in Cc1ccccc1)?
The emission maximum was 488 nm.

What about the emission maximum (in ClCCl) of the same molecule?
The emission maximum was 502 nm.

For `C#CCn1c2ccccc2c2cc(/C=C/C3=[N+]4C(=C(c5ccc(I)cc5)c5c(C)c(Cl)c(/C=C/c6ccc7c(c6)c6ccccc6n7CC#C)n5[B-]4(F)F)C(C)=C3Cl)ccc21`, which emission maximum (in CC#N) is on record?
Its emission maximum is 731 nm.

What about the emission maximum (in CS(C)=O) of the same molecule?
The emission maximum was 749 nm.

And the emission maximum (in ClC(Cl)Cl)?
Its emission maximum is 730 nm.

With `c1ccc(N(c2ccccc2)c2ccc(-c3nc4ccccc4n3-c3ccccc3)cc2)cc1` as the molecule, how does the emission maximum (in CC#N) read?
Its emission maximum is 444 nm.

With `c1ccc(N2N=C(c3cccc4ccccc34)CC2c2ccc3ccc4cccc5ccc2c3c45)cc1` (stereo not given) as the molecule, how does the emission maximum (in ClCCl) read?
The emission maximum was 455 nm.

For `CN(C)c1ccc(C2=C(c3ccccc3)c3oc4ccccc4[n+]3[B-](F)(F)O2)cc1`, which emission maximum (in C1CCOC1) is on record?
Its emission maximum is 476 nm.

Which emission maximum (in CC#N) does the source give for `O=c1oc2cc(S(=O)(=O)O)c3ccccc3c2nc1-c1ccccc1` here?
The emission maximum was 480 nm.

What does the source list for `COc1c2ccccc2c(OC)c2c1c1c(F)cccc1n2C`?
emission maximum (in C1CCCCC1): 411 nm; emission maximum (in CC#N): 421 nm; emission maximum (in CO): 417 nm; emission maximum (in ClCCl): 418 nm

With `N#CC(C#N)=Cc1ccc2c(c1)c1cc(C=C(C#N)C#N)ccc1n2-c1cccc2ccccc12` as the molecule, how does the emission maximum (in ClCCl) read?
The emission maximum was 453 nm.

For `CC(C)(C)c1ccc2c(c1)c1cc(C(C)(C)C)ccc1n2-c1nc2ccccc2nc1-n1c2ccc(C(C)(C)C)cc2c2cc(C(C)(C)C)ccc21`, which emission maximum (in C1CCOC1) is on record?
Its emission maximum is 544.34 nm.

And the emission maximum (in CCCCCC)?
The emission maximum was 488.69 nm.

And the emission maximum (in Cc1ccccc1)?
Its emission maximum is 527 nm.
